The record followed here is patent US9376438B2, “Pyrazolopyrimidine derivatives as tyrosine kinase inhibitors” (Principia Biopharma, Inc., priority 2011, dated 2016).

Structures are written as SMILES.

For the experiment, the target named is human recombinant Btk (Homo sapiens, UniProt Q06187). The experiment in a line: Btk Enzymatic Activity Assay (Caliper-based kinase assay). It is filed as biochemical. To be noted: human recombinant Btk 2 nM, ATP 40 μM, peptide substrate 1 μM, room temperature, 3 h; read-out: IC50 (inhibition of Btk kinase activity). How it is done:
A Caliper-based kinase assay (Caliper Life Sciences, Hopkinton, Mass.) was used to measure inhibition of Btk kinase activity of a compound of Formula (I). Serial dilutions of test compounds were incubated with human recombinant Btk (2 nM), ATP (40 μM) and a phosphoacceptor peptide substrate FAM-GEEPLYWSFPAKKK-NH2 (1 μM) at room temperature for 3 h. The reaction was then terminated with EDTA, final concentration 20 mM and the phosphorylated reaction product was quantified on a Caliper Desktop Profiler (Caliper LabChip 3000). Percent inhibition was calculated for each compound dilution and the concentration that produced 50% inhibition was calculated. This value is presented as the IC50.

Sequence of human recombinant Btk (Q06187 whole entry): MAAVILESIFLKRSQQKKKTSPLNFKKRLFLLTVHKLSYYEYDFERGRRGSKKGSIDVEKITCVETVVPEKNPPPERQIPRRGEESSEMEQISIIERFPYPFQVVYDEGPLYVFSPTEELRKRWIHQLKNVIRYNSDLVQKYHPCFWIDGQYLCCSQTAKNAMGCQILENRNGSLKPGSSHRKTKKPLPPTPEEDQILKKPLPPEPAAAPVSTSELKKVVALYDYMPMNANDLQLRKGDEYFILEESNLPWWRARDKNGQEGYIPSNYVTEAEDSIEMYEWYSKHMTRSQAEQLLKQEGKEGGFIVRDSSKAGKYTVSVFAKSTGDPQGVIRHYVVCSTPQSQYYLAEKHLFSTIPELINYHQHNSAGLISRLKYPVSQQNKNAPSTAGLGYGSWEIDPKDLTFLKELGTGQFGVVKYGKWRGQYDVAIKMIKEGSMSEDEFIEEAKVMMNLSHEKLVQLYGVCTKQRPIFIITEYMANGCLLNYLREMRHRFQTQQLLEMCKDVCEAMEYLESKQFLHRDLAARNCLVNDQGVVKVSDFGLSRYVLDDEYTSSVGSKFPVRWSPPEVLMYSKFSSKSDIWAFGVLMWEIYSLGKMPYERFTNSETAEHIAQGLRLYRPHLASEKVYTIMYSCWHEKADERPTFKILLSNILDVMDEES

Regarding `Nc1ncnc2c1c(-c1ccc(Oc3ccccc3)cc1)nn2C[C@H]1CCCN1C(=O)C(F)=CC1CC1` [Example 1, (R)-1-(2-((4-amino-3-(4-phenoxyphenyl)-1H-pyrazolo[3,4-d]pyrimidin-1-yl)methyl)pyrrolidin-1-yl)-3-cyclopropyl-2-fluoroprop-2-en-1-one], the IC50 – broadly, the midpoint of a concentration-inhibition curve – worked out at 203 nM.
Under `Nc1ncnc2c1c(-c1ccc(Oc3ccccc3)cc1)nn2C[C@H]1CCCN1C(=O)C(=CC1CC1)C(F)(F)F` [Example 2, (R)-1-(2-((4-amino-3-(4-phenoxyphenyl)-1H-pyrazolo[3,4-d]pyrimidin-1-yl)methyl)pyrrolidin-1-yl)-3-cyclopropyl-2-(trifluoromethyl)prop-2-en-1-one] stands 41 nM; under `Nc1ncnc2c1c(-c1ccc(Oc3ccccc3)cc1)nn2CCCN1C(=O)SC(=CC2CC2)C1=O` [Example 3, 3-(3-(4-amino-3-(4-phenoxyphenyl)-1H-pyrazolo[3,4-d]pyrimidin-1-yl)propyl)-5-(cyclopropylmethylene)thiazolidine-2,4-dione], 23 nM; under `Nc1ncnc2c1c(-c1ccc(Oc3ccccc3)cc1)nn2CCN1C(=O)SC(=Cc2ccccc2)C1=O` [Example 4, 3-(2-(4-amino-3-(4-phenoxyphenyl)-1H-pyrazolo[3,4-d]pyrimidin-1-yl)ethyl)-5-benzylidenethiazolidine-2,4-dione], 860 nM.
Under `Nc1ncnc2c1c(-c1ccc(Oc3ccccc3)cc1)nn2CCN1C(=O)SC(=CC2CC2)C1=O` [Example 5, 3-(2-(4-amino-3-(4-phenoxyphenyl)-1H-pyrazolo[3,4-d]pyrimidin-1-yl)ethyl)-5-(cyclopropylmethylene)thiazolidine-2,4-dione] stands 49 nM.
